Test results: patent US20040171061A1 (priority 2000, published 2004)

Tests used:
[1] = molecular target: autophagocytosis (luciferase uptake into isolated yeast vacuoles); assay: In vitro autophagocytosis assay (luciferase uptake into isolated vacuoles); format: biochemical, Saccharomyces cerevisiae; settings: standard uptake reaction, cell-free, sample without inhibitor as 100% reference, FIG. 7; read-out: IC50 for prevention of vesicle formation (luciferase uptake)
Method: This mixture was incubated for 1 h at 27° C. A 70 μl sample was chilled on ice, diluted with 300 μl 150 mM KCl in PS buffer, centrifuged (6800×g, 4 min, 2° C., fixed angle table top centrifuge), washed twice with 300 μl 150 mM KCl in PS buffer, and resuspended in 60 μl 150 mM KCl in PS buffer. 10 μl were used to check for complete vacuole recovery by determining the protein concentration or, alternatively, the activity of endogenous Pho8p (according to Haas et al., 1994). 40 μl of the suspension were treated with proteinase K (15 min, 0° C., 275 μg/ml, added from a 5 mg/ml stock in PS) to digest surface-bound luciferase. Digestion was terminated by adding an equal volume of freshly prepared PMSF solution (0.5 mM PMSF, 150 mM KCl, in PS buffer). Luciferase activity was determined from a 25 μl aliquot in a luminometer using a luciferase kit (Berthold Detection Systems, Pforzheim) according to the instructions of the supplier.

firefly luciferase = firefly luciferase (Photinus pyralis, UniProt P08659); assay: Direct influence on luciferase activity (control); format: biochemical; settings: not shown
[2] = tested on: autophagocytosis in yeast; settings: nocodazole treatment disassembling microtubules (Kirisako et al. 1999); cited from earlier work

Chain of firefly luciferase (P08659 whole entry): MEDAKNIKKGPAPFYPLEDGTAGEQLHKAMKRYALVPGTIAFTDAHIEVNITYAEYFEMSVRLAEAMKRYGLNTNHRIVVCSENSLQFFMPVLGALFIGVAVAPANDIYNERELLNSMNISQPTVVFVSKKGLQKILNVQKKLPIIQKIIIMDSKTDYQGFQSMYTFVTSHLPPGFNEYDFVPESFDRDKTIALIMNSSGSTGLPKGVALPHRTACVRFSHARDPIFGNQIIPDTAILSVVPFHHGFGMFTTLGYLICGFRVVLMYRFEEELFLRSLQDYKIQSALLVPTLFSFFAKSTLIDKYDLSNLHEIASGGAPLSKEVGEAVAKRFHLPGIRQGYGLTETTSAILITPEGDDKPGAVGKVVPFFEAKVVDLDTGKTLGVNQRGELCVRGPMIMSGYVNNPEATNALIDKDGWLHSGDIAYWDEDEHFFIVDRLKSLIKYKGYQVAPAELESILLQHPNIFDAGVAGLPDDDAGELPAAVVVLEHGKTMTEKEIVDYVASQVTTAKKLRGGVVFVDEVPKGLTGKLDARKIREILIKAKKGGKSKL

Structure (SMILES) | IC50 [1] [µM] | influence on luciferase activity by itself (firefly luciferase) | block of autophagocytosis in yeast [2]
Nc1nc2c(ncn2[C@@H]2O[C@H](COP(=O)(O)OP(=O)(O)OP(O)(O)=S)[C@@H](O)[C@H]2O)c(=O)[nH]1 [GTPγS] | 100 | did not influence luciferase activity by itself | –
COC(=O)Nc1nc2ccc(C(=O)c3cccs3)cc2[nH]1 [nocodazole] | – | – | does not block autophagocytosis
